Experimental data: patent publication US10004701B2, “Methods and compositions for treating infection” (UNIVERSITY OF ROCHESTER, priority 2012, dated 2018)
Structures can show the parent of a compound that is named as a salt. Where two headings read alike, the source gives them in different places.

Tests used:
Test in all cases: AK assay 384-well format, Prestwick library screening
[1] = test system: A. baumannii strain 98-37-09; type: cell-based, Acinetobacter baumannii; settings: 50 μM final drug concentration; for fold induction at 50 µM: Acinetobacter baumannii, 983709, 3 h
K. pneumoniae = type: cell-based, Klebsiella pneumoniae; settings: 50 μM final drug concentration; for fold induction at 50 µM: Klebsiella pneumoniae, 3 h
E. coli = type: cell-based, Escherichia coli; settings: 50 μM final drug concentration; for fold induction at 50 µM: Escherichia coli, 3 h
[2] = test system: S. aureus strain USA300-0114; type: cell-based, Staphylococcus aureus; settings: 50 μM final drug concentration; for fold induction at 50 µM: Staphylococcus aureus, USA300, 3 h
E. faecium = type: cell-based, Enterococcus faecium; settings: 50 μM final drug concentration; for fold induction at 50 µM: Enterococcus faecium, 3 h
E. cloacae = type: cell-based, Enterobacter cloacae; settings: 50 μM final drug concentration; for fold induction at 50 µM: Enterobacter cloacae, 3 h
P. aeruginosa = type: cell-based, Pseudomonas aeruginosa; settings: 50 μM final drug concentration; for fold induction at 50 µM: Pseudomonas aeruginosa, 3 h
[3] = planktonic A. baumannii, 384-well, cutoff for positive-scoring molecules 3-fold increase, read-out: AK-based Prestwick Library Screening Results: A. baumannii (increase in extracellular AK activity)
[4] = planktonic K. pneumoniae, 384-well, cutoff for positive-scoring molecules 3-fold increase, read-out: AK-based Prestwick Library Screening Results: K. pneumoniae (increase in extracellular AK activity)
[5] = planktonic E. coli, 384-well, cutoff for positive-scoring molecules 3-fold increase, read-out: AK-based Prestwick Library Screening Results: E. coli (increase in extracellular AK activity)
[6] = planktonic S. aureus, 384-well, cutoff for positive-scoring molecules 3-fold increase, read-out: AK-based Prestwick Library Screening Results: S. aureus (increase in extracellular AK activity)
[7] = planktonic E. faecium, 384-well, cutoff for positive-scoring molecules 3-fold increase, read-out: AK-based Prestwick Library Screening Results: E. faecium (increase in extracellular AK activity)
[8] = planktonic E. cloacae, 384-well, cutoff for positive-scoring molecules 3-fold increase, read-out: AK-based Prestwick Library Screening Results: E. cloacae (increase in extracellular AK activity)
[9] = planktonic P. aeruginosa, 384-well, cutoff for positive-scoring molecules 3-fold increase, read-out: AK-based Prestwick Library Screening Results: P. aeruginosa (increase in extracellular AK activity)
[10] = planktonic A. baumannii, cutoff for positive-scoring molecules 3-fold increase, read-out: AK-based Prestwick Library Screening Results, A. baumannii (increase in extracellular AK activity)
[11] = planktonic K. pneumoniae, cutoff for positive-scoring molecules 3-fold increase, read-out: AK-based Prestwick Library Screening Results, K. pneumoniae (increase in extracellular AK activity)
[12] = planktonic E. coli, […], read-out: AK-based Prestwick Library Screening Results, E. coli (increase in extracellular AK activity)
[13] = planktonic S. aureus, cutoff for positive-scoring molecules 3-fold increase, read-out: AK-based Prestwick Library Screening Results, S. aureus (increase in extracellular AK activity)
[14] = planktonic E. faecium, cutoff for positive-scoring molecules 3-fold increase, read-out: AK-based Prestwick Library Screening Results, E. faecium (increase in extracellular AK activity)
[15] = planktonic E. cloacae, cutoff for positive-scoring molecules 3-fold increase, read-out: AK-based Prestwick Library Screening Results, E. cloacae (increase in extracellular AK activity)
[16] = planktonic P. aeruginosa, cutoff for positive-scoring molecules 3-fold increase, read-out: AK-based Prestwick Library Screening Results, P. aeruginosa (increase in extracellular AK activity)
[17] = planktonic E. coli, cutoff for positive-scoring molecules 3-fold increase, read-out: AK-based Prestwick Library Screening Results, E. coli (increase in extracellular AK activity)
[18] = planktonic, cutoff for positive 3-fold increase

CCCNC(=O)NS(=O)(=O)c1ccc(Cl)cc1 [Chlorpropamide]
fold induction at 50 µM [1, 3]: 0.3
fold induction at 50 µM (K. pneumoniae; [4]): 0.4
fold induction at 50 µM (E. coli; [5]): 0.4
fold induction at 50 µM [2, 6]: 0.4
fold induction at 50 µM (E. faecium; [7]): 0.9
fold induction at 50 µM (E. cloacae; [8]): 0.3
fold induction at 50 µM (P. aeruginosa; [9]): 0.3

CN(C)CC/C=C1/c2ccccc2Sc2ccc(Cl)cc21 [Chlorprothixene hydrochloride]
fold induction at 50 µM [1, 10]: 1.2
fold induction at 50 µM (K. pneumoniae; [11]): 0.8
fold induction at 50 µM (E. coli; [12]): 1
fold induction at 50 µM [2, 13]: 0.6
fold induction at 50 µM (E. faecium; [14]): 1
fold induction at 50 µM (E. cloacae; [15]): 1
fold induction at 50 µM (P. aeruginosa; [16]): 0.9

CN(C)[C@@H]1C(O)=C(C(N)=O)C(=O)[C@@]2(O)C(O)=C3C(=O)c4c(O)ccc(Cl)c4[C@@](C)(O)[C@H]3C[C@@H]12 [Chlortetracycline hydrochloride]
fold induction at 50 µM [1, 3]: 3.9
fold induction at 50 µM (K. pneumoniae; [4]): 0.2
fold induction at 50 µM (E. coli; [5]): 0.8
fold induction at 50 µM [2, 6]: 6.8
fold induction at 50 µM (E. faecium; [7]): 0.9
fold induction at 50 µM (E. cloacae; [8]): 1
fold induction at 50 µM (P. aeruginosa; [9]): 0.7

NS(=O)(=O)c1cc(C2(O)NC(=O)c3ccccc32)ccc1Cl (stereo not shown) [Chlorthalidone]
fold induction at 50 µM [1, 10]: 0.8
fold induction at 50 µM (K. pneumoniae; [11]): 0.6
fold induction at 50 µM (E. coli; [17]): 0.9
fold induction at 50 µM [2, 13]: 0.7
fold induction at 50 µM (E. faecium; [14]): 0.9
fold induction at 50 µM (E. cloacae; [15]): 1
fold induction at 50 µM (P. aeruginosa; [16]): 0.8

C=C1CC[C@H](O)C/C1=C/C=C1\CCC[C@]2(C)[C@@H]([C@H](C)CCCC(C)C)CC[C@@H]12 [Cholecalciferol]
fold induction at 50 µM ([1]; planktonic A. baumannii, […], read-out: AK-based Prestwick Library Screening Results, A. baumannii (increase in extracellular AK activity)): 0.8
fold induction at 50 µM (K. pneumoniae; planktonic K. pneumoniae, […], read-out: AK-based Prestwick Library Screening Results, K. pneumoniae (increase in extracellular AK activity)): 0.7
fold induction at 50 µM (E. coli; [12]): 1
fold induction at 50 µM ([2]; planktonic S. aureus, […], read-out: AK-based Prestwick Library Screening Results, S. aureus (increase in extracellular AK activity)): 0.7
fold induction at 50 µM (E. faecium; planktonic E. faecium, […], read-out: AK-based Prestwick Library Screening Results, E. faecium (increase in extracellular AK activity)): 0.9
fold induction at 50 µM (E. cloacae; planktonic E. cloacae, […], read-out: AK-based Prestwick Library Screening Results, E. cloacae (increase in extracellular AK activity)): 1
fold induction at 50 µM (P. aeruginosa; planktonic P. aeruginosa, […], read-out: AK-based Prestwick Library Screening Results, P. aeruginosa (increase in extracellular AK activity)): 0.9

O=C1C=CC(=O)c2c1ccc1c2ccc2ccccc21 [Chrysene-1,4-quinone]
fold induction at 50 µM ([1]; planktonic, […], read-out: AK-based Prestwick Library Screening Results, A. baumannii (fold increase in extracellular AK activity)): 0.8
fold induction at 50 µM (K. pneumoniae; planktonic, […], read-out: AK-based Prestwick Library Screening Results, K. pneumoniae (fold increase in extracellular AK activity)): 0.8
fold induction at 50 µM (E. coli; planktonic, […], read-out: AK-based Prestwick Library Screening Results, E. coli (fold increase in extracellular AK activity)): 1.1
fold induction at 50 µM ([2]; planktonic, […], read-out: AK-based Prestwick Library Screening Results, S. aureus (fold increase in extracellular AK activity)): 0.1
fold induction at 50 µM (E. faecium; planktonic, […], read-out: AK-based Prestwick Library Screening Results, E. faecium (fold increase in extracellular AK activity)): 0.9
fold induction at 50 µM (E. cloacae; planktonic, […], read-out: AK-based Prestwick Library Screening Results, E. cloacae (fold increase in extracellular AK activity)): 1.4
fold induction at 50 µM (P. aeruginosa; planktonic, […], read-out: AK-based Prestwick Library Screening Results, P. aeruginosa (fold increase in extracellular AK activity)): 1

O=c1cc(-c2ccccc2)oc2cc(O)cc(O)c12 [Chrysin]
fold induction at 50 µM ([1]; planktonic, cutoff for positive-scoring molecules 3-fold increase, read-out: AK-based Prestwick Library Screening Results, A. baumannii (fold increase in extracellular AK activity)): 0.2
fold induction at 50 µM (K. pneumoniae; planktonic, cutoff for positive-scoring molecules 3-fold increase, read-out: AK-based Prestwick Library Screening Results, K. pneumoniae (fold increase in extracellular AK activity)): 0.2
fold induction at 50 µM (E. coli; planktonic, cutoff for positive-scoring molecules 3-fold increase, read-out: AK-based Prestwick Library Screening Results, E. coli (fold increase in extracellular AK activity)): 0.2
fold induction at 50 µM ([2]; planktonic, cutoff for positive-scoring molecules 3-fold increase, read-out: AK-based Prestwick Library Screening Results, S. aureus (fold increase in extracellular AK activity)): 0.2
fold induction at 50 µM (E. faecium; planktonic, cutoff for positive-scoring molecules 3-fold increase, read-out: AK-based Prestwick Library Screening Results, E. faecium (fold increase in extracellular AK activity)): 0.3
fold induction at 50 µM (E. cloacae; planktonic, cutoff for positive-scoring molecules 3-fold increase, read-out: AK-based Prestwick Library Screening Results, E. cloacae (fold increase in extracellular AK activity)): 0.6
fold induction at 50 µM (P. aeruginosa; planktonic, cutoff for positive-scoring molecules 3-fold increase, read-out: AK-based Prestwick Library Screening Results, P. aeruginosa (fold increase in extracellular AK activity)): 0.1

Cc1cc(C2CCCCC2)n(O)c(=O)c1.NCCO [Ciclopirox ethanolamine]
AK-based Prestwick Library Screening Results, A. baumannii (fold increase in extracellular AK activity) [1, 18]: 1.2
AK-based Prestwick Library Screening Results, K. pneumoniae (fold increase in extracellular AK activity) (K. pneumoniae; [18]): 0.9
AK-based Prestwick Library Screening Results, E. coli (fold increase in extracellular AK activity) (E. coli; [18]): 1.1
AK-based Prestwick Library Screening Results, S. aureus (fold increase in extracellular AK activity) [2, 18]: 0.7
AK-based Prestwick Library Screening Results, E. faecium (fold increase in extracellular AK activity) (E. faecium; [18]): 1.6
AK-based Prestwick Library Screening Results, E. cloacae (fold increase in extracellular AK activity) (E. cloacae; [18]): 1.2
AK-based Prestwick Library Screening Results, P. aeruginosa (fold increase in extracellular AK activity) (P. aeruginosa; [18]): 1.0

O=C1CCc2cc(OCCCCc3nnnn3C3CCCCC3)ccc2N1 [Cilostazol]
fold induction at 50 µM [1, 10]: 0.9
fold induction at 50 µM (K. pneumoniae; [11]): 0.7
fold induction at 50 µM (E. coli; [17]): 0.9
fold induction at 50 µM [2, 13]: 0.8
fold induction at 50 µM (E. faecium; [14]): 0.9
fold induction at 50 µM (E. cloacae; [15]): 0.9
fold induction at 50 µM (P. aeruginosa; [16]): 0.9

CN/C(=N/CCSCc1nc[nH]c1C)NC#N [Cimetidine]
fold induction at 50 µM ([1]; 384-well format, cutoff for positive-scoring molecules 3-fold increase, read-out: AK-based Prestwick Library Screening Results, A. baumannii (increase in extracellular AK activity)): 0.8
fold induction at 50 µM (K. pneumoniae; 384-well format, cutoff for positive-scoring molecules 3-fold increase, read-out: AK-based Prestwick Library Screening Results, K. pneumoniae (increase in extracellular AK activity)): 0.7
fold induction at 50 µM (E. coli; 384-well format, cutoff for positive-scoring molecules 3-fold increase, read-out: AK-based Prestwick Library Screening Results, E. coli (increase in extracellular AK activity)): 0.9
fold induction at 50 µM ([2]; 384-well format, cutoff for positive-scoring molecules 3-fold increase, read-out: AK-based Prestwick Library Screening Results, S. aureus (increase in extracellular AK activity)): 0.8
fold induction at 50 µM (E. faecium; 384-well format, cutoff for positive-scoring molecules 3-fold increase, read-out: AK-based Prestwick Library Screening Results, E. faecium (increase in extracellular AK activity)): 0.9
fold induction at 50 µM (E. cloacae; 384-well format, cutoff for positive-scoring molecules 3-fold increase, read-out: AK-based Prestwick Library Screening Results, E. cloacae (increase in extracellular AK activity)): 1
fold induction at 50 µM (P. aeruginosa; 384-well format, cutoff for positive-scoring molecules 3-fold increase, read-out: AK-based Prestwick Library Screening Results, P. aeruginosa (increase in extracellular AK activity)): 0.8
